Experimental findings from patent US20080009512A1, “Tetrahydroquinolones and Aza-Analogues Thereof for Use as Dpp-IV Inhibitors in the Treatment of Diabetes” (ASTRAZENECA AB, priority 2004, published 2008) are described below.

A word on the IC50: it is the concentration at which inhibition is half-maximal. A lower IC50 goes with greater potency.

The target in the assay is T1, DPP-IV activity from human colonic carcinoma cell extracts (Caco-2) (Homo sapiens, UniProt P27487).
T1 construct: Cell extract is prepared from cells solubilized in 10 mM Tris HCI, 0.15 M NaCI, 0.04 t.i.u.aprotinin, 0.5% nonidet-P40; host or cells: Caco-2, differentiated to induce DPP-IV expression; detergent-solubilized extract
As to the kind of experiment: caco-2 DPP-IV Assay (CaCo2 extract, fluorescence, H-Gly-Pro-AMC substrate). The class given is biochemical. The settings on record: solubilized Caco-2 protein extract; 11-point dose-response curves, 4 parameter logistic function. How it is done:
As indicated above, all of the compounds, and their corresponding pharmaceutically-acceptable salts, are useful in inhibiting DPP-IV. […] The human colonic carcinoma cell line Caco-2 was obtained from the American Type Culture Collection (ATCC HTB 37). Differentiation of the cells to induce DPP-IV expression was accomplished as described by Reisher, et al. (Proc. Natl. Acad. Sci., Vol. 90, pgs. 5757-5761 (1993)). Cell extract is prepared from cells solubilized in 10 mM Tris HCI, 0.15 M NaCI, 0.04 t.i.u.aprotinin, 0.5% nonidet-P40, pH 8.0, which is centrifuged at 35,000 g for 30 min at 4° C. to remove cell debris.
The […] assay is conducted by adding 20 μg solubilized Caco-2 protein or purified porcine kidney DPP-IV, in a final volume of 10 ul in assay buffer (25 mM Tris HCl pH 7.4, 140 mM NaCl, 10 mM KCl, 0.1% Triton-x-100) to microtiter plate wells. […] The endpoint is determined by measuring absorbance at 405 nm in a Labsystems microtiter plate reader.
Activity of CaCo2 extract is also measured employing a modified version of the assay described in Kubota, et al. (Clin. Exp. Immunol., Vol. 89, pgs. 192-197 (1992)). […] After the 10 min. reaction, florescence is measured using a Tecan Ultra fluorimeter (Excitation 360 nm Emission 465 nm). […]

T1 sequence (P27487 whole entry): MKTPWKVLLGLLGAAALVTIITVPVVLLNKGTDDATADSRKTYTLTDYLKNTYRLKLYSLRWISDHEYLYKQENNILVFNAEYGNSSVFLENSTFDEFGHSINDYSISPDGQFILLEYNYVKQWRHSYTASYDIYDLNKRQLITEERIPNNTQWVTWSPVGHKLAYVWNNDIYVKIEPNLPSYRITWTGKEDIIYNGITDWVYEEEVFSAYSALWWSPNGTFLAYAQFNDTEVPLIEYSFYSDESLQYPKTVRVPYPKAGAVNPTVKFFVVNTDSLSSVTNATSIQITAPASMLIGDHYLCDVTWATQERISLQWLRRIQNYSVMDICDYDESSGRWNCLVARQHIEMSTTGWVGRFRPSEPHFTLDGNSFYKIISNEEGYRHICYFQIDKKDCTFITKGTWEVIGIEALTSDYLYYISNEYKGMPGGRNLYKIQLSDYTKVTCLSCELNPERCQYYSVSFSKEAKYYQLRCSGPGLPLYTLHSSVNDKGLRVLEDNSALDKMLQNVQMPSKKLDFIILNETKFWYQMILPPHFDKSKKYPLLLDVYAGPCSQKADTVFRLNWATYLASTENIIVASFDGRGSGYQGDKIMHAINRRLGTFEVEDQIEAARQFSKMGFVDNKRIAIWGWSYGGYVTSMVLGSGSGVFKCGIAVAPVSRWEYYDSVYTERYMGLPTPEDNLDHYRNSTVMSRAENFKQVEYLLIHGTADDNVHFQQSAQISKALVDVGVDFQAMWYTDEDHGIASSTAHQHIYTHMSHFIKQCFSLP

The compound `N[C@@H](CC(=O)NC1Cc2ccccc2NC1=O)Cc1ccccc1F` (stereo partly drawn) [Example 1, (3R)-3-Amino-4-(2-fluorophenyl)-N-(2-oxo-1,2,3,4-tetrahydroquinolin-3-yl)butanamide] gave an IC50 of 0.58 µM.
